Assay results taken from patent US20230321025A1, “METHOD AND COMPOUND FOR THE TREATMENT AND ELIMINATION OF AN IMMUNODEFICIENCY CONDITION” (priority 2020, published 2023).
Values after ≈ are worked out from the molar mass of the structure shown. Values joined by “and” are separate entries in the source; they are usually repeats but may differ in a detail not shown here. Identical values can stand only once. Like-named read-outs stand apart in the source and are kept apart here.

Assays:
[1] = test system: CEM-SS T-lymphoblastoid cells; test: Drug-induced cytotoxicity in CEM-SS cells (tetrazolium reduction); conditions: for Toxicity testing, mean optical density: human, 6 days
Excerpt: This assay was used to test the effectiveness of anti-HIV drug monotherapy in the established T-cell line CEM-SS infected with HIV-1RF, HIV-1IIIb, HIV-2ROD, or other cytolytic variants of HIV.
The drugs were solubilized in DMSO (dimethyl sulfoxide). […] CEM-SS cells were in logarithmic growth phase at the time of experimentation. Virus (HIV-1RF) stocks that past the necessary quality controls (killing effect on the type of cells used, limited variability, etc) were thawed and maintained on ice until required for addition.
Half-log serial dilutions of the antiviral agent or compound of the invention, H2K1001 (90i), were made in tissue culture media (RPMI 1640 without phenol red, supplemented with 10% heat inactivated fetal bovine serum, 1% L-Glutamine, 1% Pen/Strep and 50 ug/ml gentimycin). Virus, cell, drug and diluent (ethanol) controls were included for these tests. Virus was added after cells and drugs were mixed. Cell, drug, and virus containing cultures were incubated for six (6) days without additional feeding at which time the cultures were evaluated macroscopically and microscopically for cell toxicity, and the tetrazolium salt […] was added for quantitation by the colorimetric determination of formazan production (optical density).
Drug efficacy and cytotoxicity effects were determined six days after infection by the metabolic reduction of the tetrazolium salt XTT to its‘ formazan by surviving cells and was quantitated by determination of optical density at 450 nm with background subtraction at 650 nm (Tables 1-4).
The drug plate analysis reports from this assay are provided below in Tables 1-4. Calculated endpoints (EC50, etc.) were determined using Cho and Cho Median Effect Equation (Daids Virology Manual for HIV Laboratories, Compiled by The Division of Aids, National Institute of Allergy and Infectious Diseases, National Institutes of Health and Collaborating Investigators, Version January 1997).

HIV-1 (P2) = test: Antiviral drug assay in PBMC (supernatant p24); type: cell-based; conditions: for p24 testing data, single readings: listed as H2K-1001 (900); for EC50: Human immunodeficiency virus 1, PBMC
Experimental: Drug efficacy was determined by the production of supernatant HIV-1 p24. Drug-induced cytotoxicity was determined by the metabolic reduction of tetrazolium salts (MTS; Promega).
The antiviral drug or agent of the invention, H2K-1001 (90i), was solubilized. PBMCs, stimulated with PHA (phytohemagglutinin) for three days were employed throughout. Virus stocks (U.S. Clinical isolates) grown in PBMCs only, that past the necessary quality controls (i.e., replicate to high titer in PBMCs and meet the requirements as to genotype and phenotype) were rapidly thawed and maintained on ice until required for infection.
Virus and cell controls were included on each test plate. Virus was added after cells and drugs were mixed. Cell, drug and virus containing cultures were incubated for seven (7) days with an interim feeding at day three or four.
Supernatants were sampled at seven days for p24 determination by antigen capture ELISA. Cytotoxicity was measured by the metabolic reduction of the tetrazolium salt according to the manufacturer’s (Promega) recommendations.
The drug analysis reports from these studies are provided below in Tables 7-10. Efficacy (EC50) and viability (IC50) determinations were made using Cho and Cho Median Effect Equation, as noted above. Efficacy is expressed as the 50% effective concentration (EC50) and drug induced toxicity as the 50% inhibitory concentration (IC50).

[2] = test system: monotropic HIV-1 (macbal); test: Antiretroviral effect against monotropic/neurotropic HIV-1 in monocyte; type: cell-based; conditions: monotropic HIV-1 (macbal) in monocyte
HIV-1 = test: Cell based time course study (mode of action); conditions: AZT and Indinavir as controls
Excerpt: As such, the cell based time course study is such an important tool for the determination of viral kinetics and a mode of action for a drug. […] The dynamics of the interactions relate to the viral kinetic of infection and drug addition at various time points. In the various cell-based assays conducted on H2K1001 and/or 90I, it may be reasonably concluded that the compound works both early and late.

[3] = test system: gamma interferon production; test: Gamma interferon production in spleenocyte of mice; type: cell-based; conditions: versus positive control PMA-Ionomycin combination
Excerpt: Referring again to FIG. 14, activated CD8+ cells are reported to produce high levels of gamma interferon, which may be involved in the anti-HIV-1 immune responses, contributing to both control of viral spread and concomitant lymphoid follicular lyses. […] This finding may have a far-reaching implication and relevant in the restoration of immune system competence.

O=C(OCCOCCOC(=O)c1ccccc1)c1ccccc1 [90I, diethylene glycol dibenzoate]
Toxicity % CC ([1]; 0.01 ug/ml): 100 % CC | Toxicity % CC ([1]; 0.03 ug/ml): 103 % CC | Toxicity % CC ([1]; 0.1 ug/ml): 104 % CC | Toxicity % CC ([1]; 0.3 ug/ml): 100 % CC | Toxicity % CC ([1]; 1 ug/ml): 100 % CC | Toxicity % CC ([1]; 3 ug/ml): 99 % CC | Toxicity % CC ([1]; 10 ug/ml): 93 % CC | Toxicity % CC ([1]; 33 ug/ml): 94 % CC | Toxicity testing, optical density of single wells ([1]; 33 ug/ml, listed as H2K1001 (90I)): 2.3330 | Toxicity % CC ([1]; 100 ug/ml): 106 % CC | 50% inhibitory concentration, IC50 (drug induced toxicity) ([1]; CEM-SS, high test concentration 100 ug/ml): greater than 100 ug/ml | IC50 ([1]; Homo sapiens, CEM-SS): > 100 µg/mL | Toxicity testing, mean optical density ([1]; 0.01 ug/ml): 2.4317 | Toxicity testing, mean optical density ([1]; 0.03 ug/ml): 2.4969 | Toxicity testing, mean optical density ([1]; 0.1 ug/ml): 2.5149 | Toxicity testing, mean optical density ([1]; 0.3 ug/ml): 2.4130 | Toxicity testing, mean optical density ([1]; 1 ug/ml): 2.4177 | Toxicity testing, mean optical density ([1]; 3 ug/ml): 2.4007 | Toxicity testing, mean optical density ([1]; 33 ug/ml): 2.2879 | Toxicity testing, mean optical density ([1]; 100 ug/ml): 2.5604 | Efficacy % p24 Reduction (HIV-1 (P2); 0.01 ug/ml): 23% | p24 testing data, mean reading (HIV-1 (P2); 0.01 ug/ml): 2.2023 | p24 testing data, single readings (HIV-1 (P2); 0.01 ug/ml): 2.100 and 2.2130 and 2.2937 | Efficacy % p24 Reduction (HIV-1 (P2); 0.03 ug/ml): 25% | p24 testing data, mean reading (HIV-1 (P2); 0.03 ug/ml): 2.1373 | p24 testing data, single readings (HIV-1 (P2); 0.03 ug/ml): 2.1210 and 1.9460 and 2.3450 | Efficacy % p24 Reduction (HIV-1 (P2); 0.10 ug/ml): 36% | p24 testing data, mean reading (HIV-1 (P2); 0.10 ug/ml): 1.8337 | p24 testing data, single readings (HIV-1 (P2); 0.10 ug/ml): 1.9461 and 1.8101 and 1.7450 | Efficacy % p24 Reduction (HIV-1 (P2); 0.33 ug/ml): 36% | p24 testing data, mean reading (HIV-1 (P2); 0.33 ug/ml): 1.8344 | p24 testing data, single readings (HIV-1 (P2); 0.33 ug/ml): 1.9451 and 1.7120 and 1.8460 | Efficacy % p24 Reduction (HIV-1 (P2); 1 ug/ml): 53% | p24 testing data, mean reading (HIV-1 (P2); 1 ug/ml): 1.3316 | p24 testing data, single readings (HIV-1 (P2); 1 ug/ml): 1.4266 and 1.4567 and 1.1116 | p24 testing data, mean reading (HIV-1 (P2); 3 ug/ml): 0.3713 | Efficacy % p24 Reduction (HIV-1 (P2); 3 ug/ml (3.2 in Table 11)): 87% | p24 testing data, single readings (HIV-1 (P2); 3 ug/ml): 0.4510 and 0.3219 and 0.3410 | Efficacy % p24 Reduction (HIV-1 (P2); 10 ug/ml): 95% | p24 testing data, mean reading (HIV-1 (P2); 10 ug/ml): 0.1397 | p24 testing data, single readings (HIV-1 (P2); 10 ug/ml): 0.1090 and 0.1220 and 0.1874 | Efficacy % p24 Reduction (HIV-1 (P2); 32 ug/ml): 94% | p24 testing data, mean reading (HIV-1 (P2); 32 ug/ml): 0.1690 | Efficacy % p24 Reduction (HIV-1 (P2); 100 ug/ml): 93% | p24 testing data, mean reading (HIV-1 (P2); 100 ug/ml): 0.1946 | p24 testing data, single readings (HIV-1 (P2); 100 ug/ml): 0.1530 and 0.1820 and 0.2488 | TI (HIV-1 (P2); HIV-1 P2 in PBMC): greater than 125 | EC50 (HIV-1 (P2); HIV-1 P2 clinical isolate in PBMC, read-out: EC50): ~0.8 µg/mL (≈ 2.55 µM) | EC50 (HIV-1 (P2); PBMC, virus printed HIV-IRF, read-out: BC50 (the source's name)): 0.8 µg/mL (≈ 2.55 µM) | EC50 ([2]; Human immunodeficiency virus 1, read-out: 50% effective concentration (EC50)): 0.03 µg/mL (≈ 0.0954 µM) | TI [2]: greater than 4000 | mode of action (time of inhibition) (HIV-1): inhibit HIV-1 both early and late | amount of gamma interferon produced [3]: equivalent to that of the positive control
